Results published in PMC6920897, “Interactions of 7,8-Dihydroxyflavone with Serum Albumin as well as with CYP2C9, CYP2C19, CYP3A4, and Xanthine Oxidase Biotransformation Enzymes” (Biomolecules, 2019).
Several values for one entry are separate records, joined by “and”; a condition that tells them apart may be missing. Equal entries are not always repeated. Where two headings read alike, the source gives them in different places.

How the values were obtained:
HSA Site II (naproxen) = tested on: T1, HSA Site II (naproxen); test: Ultrafiltration: displacement of Site II marker naproxen from HSA; format: binding, human; conditions: naproxen 1.0 μM, HSA 1.5 μM, PBS pH 7.4
T1 construct: purchased Sigma-Aldrich
Description: Pall Microsep Advance centrifugal devices with a 10-kDa molecular weight cut-off (MWCO) value (VWR; Budapest, Hungary) were applied. […] Before ultrafiltration, the filter units were washed once with 3.0 mL of distilled water and twice with 3.0 mL of PBS; then, samples (with a 2.5 mL volume) were driven through the filters by centrifugation (10 min, 7500× g, fixed-angle rotor, 25 °C). The concentrations of site markers in the filtrates were quantified with HPLC (see Section 2.5). Naproxen was analyzed in the filtrates as described earlier. […] The mobile phase contained acetonitrile and sodium acetate buffer (6.9 mM, pH 4.0) (50:50 v/v%). […] Naproxen was detected at 230 nm.

CYP3A4 [1] = biological target: T2, CYP3A4 (Homo sapiens, UniProt P08684); test: CYP3A4 in vitro enzyme assay (testosterone to 6β-hydroxytestosterone)
T2 sequence (P08684 whole entry): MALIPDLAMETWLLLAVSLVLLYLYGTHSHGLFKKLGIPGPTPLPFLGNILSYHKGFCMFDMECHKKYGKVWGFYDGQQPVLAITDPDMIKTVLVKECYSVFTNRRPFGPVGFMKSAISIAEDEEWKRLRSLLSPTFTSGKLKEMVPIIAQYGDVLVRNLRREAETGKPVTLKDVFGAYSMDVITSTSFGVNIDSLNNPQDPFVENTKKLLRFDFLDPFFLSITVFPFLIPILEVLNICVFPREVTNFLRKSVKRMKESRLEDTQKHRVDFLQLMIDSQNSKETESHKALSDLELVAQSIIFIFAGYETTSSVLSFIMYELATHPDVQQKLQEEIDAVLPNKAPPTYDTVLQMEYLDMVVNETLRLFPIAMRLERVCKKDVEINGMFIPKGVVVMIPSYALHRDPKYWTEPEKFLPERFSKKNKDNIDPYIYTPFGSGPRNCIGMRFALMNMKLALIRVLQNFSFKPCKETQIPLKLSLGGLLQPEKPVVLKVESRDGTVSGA
Description: The inhibitory effect of DHF on CYP3A4 was investigated as described previously. In the enzyme-catalyzed reaction, testosterone is oxidized to 6β-hydroxytestosterone. […] The incubates (with 200 μL final volume) contained CypExpress 3A4 reagent (15 mg/mL; containing also the NADPH generating system), testosterone (5 μM), NADP^+ (200 μM), G6P (500 μM), and increasing concentrations of DHF (0, 5, 10, 15, and 20 μM) in potassium phosphate buffer (50 mM, pH 7.5). Samples were incubated in thermomixer (180 min, 600 rpm, 30 °C). The reaction was started by the addition of the enzyme and stopped by the addition of 100 μL of ice-cold methanol. After centrifugation (10 min, 14,000× g, 25 °C), testosterone and 6β-hydroxytestosterone were analyzed in the supernatants by HPLC (see Section 2.5).
Testosterone and 6β-hydroxytestosterone (CYP3A4 assay) were quantified as reported previously. The samples were driven through a Phenomenex Security Guard (C18, 4.0 × 3.0 mm) guard column linked to a Kinetex EVO C18 (150 × 4.6 mm, 5 μm) analytical column (Phenomenex). The mobile phase contained methanol, water, and glacial acetic acid (59:40:1 v/v%). The isocratic elution was performed at 1.2 mL/min flow rate at room temperature. Testosterone and 6β-hydroxytestosterone were detected at 240 nm.

HSA Site I (warfarin) = tested on: T3, HSA Site I (warfarin); test: Ultrafiltration: displacement of Site I marker warfarin from HSA; format: binding, human; conditions: warfarin 1.0 μM, HSA 5.0 μM, PBS pH 7.4
T3 construct: purchased Sigma-Aldrich
Description: Pall Microsep Advance centrifugal devices with a 10-kDa molecular weight cut-off (MWCO) value (VWR; Budapest, Hungary) were applied. […] Before ultrafiltration, the filter units were washed once with 3.0 mL of distilled water and twice with 3.0 mL of PBS; then, samples (with a 2.5 mL volume) were driven through the filters by centrifugation (10 min, 7500× g, fixed-angle rotor, 25 °C). The concentrations of site markers in the filtrates were quantified with HPLC (see Section 2.5). […] The samples were driven through a Nova-Pak C18 guard column (3.9 × 20 mm, 4 μm; Waters,) and a Nova-Pak C18 analytical column (3.9 × 150 mm, 4 μm; Waters). The mobile phase contained sodium phosphate buffer (25 mM, pH 7.0), methanol, and acetonitrile (70:25:5 v/v%).

CYP2C19 = CYP2C19 (Homo sapiens, UniProt P33261); test: CYP2C19 in vitro enzyme assay (S-mephenytoin to 4-hydroxymephenytoin); format: biochemical
CYP2C19, sequence (P33261 whole entry): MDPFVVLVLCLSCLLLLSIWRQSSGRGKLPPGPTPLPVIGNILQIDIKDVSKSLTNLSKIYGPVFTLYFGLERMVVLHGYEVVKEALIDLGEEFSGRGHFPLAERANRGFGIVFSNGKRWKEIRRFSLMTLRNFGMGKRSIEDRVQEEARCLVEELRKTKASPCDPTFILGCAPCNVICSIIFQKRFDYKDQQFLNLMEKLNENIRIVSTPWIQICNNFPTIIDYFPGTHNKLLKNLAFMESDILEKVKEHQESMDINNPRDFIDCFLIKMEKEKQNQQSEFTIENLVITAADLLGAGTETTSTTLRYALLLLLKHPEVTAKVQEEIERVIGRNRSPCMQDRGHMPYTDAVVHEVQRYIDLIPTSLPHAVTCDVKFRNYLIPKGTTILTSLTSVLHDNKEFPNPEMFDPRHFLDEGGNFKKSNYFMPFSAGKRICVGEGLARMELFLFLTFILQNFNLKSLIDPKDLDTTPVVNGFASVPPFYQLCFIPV
Description: To study the inhibitory effect of DHF on CYP2C19, S-mephenytoin was used as the substrate. During the enzyme-catalyzed reaction, 4-hydroxymephenytoin is formed. […] The incubation was performed in a thermomixer (120 min, 600 rpm, 30 °C). […] After centrifugation (10 min, 14,000× g, 25 °C), S-mephenytoin and 4-hydroxymephenytoin were quantified in the supernatants by HPLC (see Section 2.5).
The mobile phase contained acetonitrile, methanol, and sodium phosphate buffer (10 mM, pH 4.55) (20:15:65 v/v%). […] S-mephenytoin and 4-hydroxymephenytoin were detected at 230 nm.

[2] = tested on: T4, human serum albumin (HSA); test: Fluorescence quenching of HSA by DHF (Stern-Volmer, Hyperquad2006); format: binding; conditions: HSA 2 μM, PBS pH 7.4, 25 °C
T4 construct: purchased Sigma-Aldrich
Description: Fluorescence spectroscopic measurements were carried out using a Hitachi F-4500 fluorescence spectrophotometer (Tokyo, Japan). The binding constant of the DHF–HSA complex was determined by fluorescence quenching, during which increasing amounts of DHF (final concentrations: 0, 0.5, 1.0, 2.0, 3.0, 4.0, 5.0, and 6.0 μM) were added to HSA (2 μM) in phosphate buffered saline (PBS; pH 7.4; containing 8.00 g/L NaCl, 0.20 g/L KCl, 1.81 g/L Na2HPO4 × 2H2O, and 0.24 g/L KH2PO4); then, emission spectra were recorded using 295-nm excitation wavelength (at 25 °C, in the presence of air). DHF-HSA interaction was evaluated using the graphical application of the Stern-Volmer equation [25, 26]:(1) I0/I=[…], where I0 and I are the fluorescence emission intensity of HSA at 340 nm in the absence and presence of DHF, respectively. KSV denotes the Stern–Volmer quenching constant (unit: L/mol), and [Q] is the concentration of DHF (unit: mol/L). Furthermore, the binding constant (K; unit: L/mol) of the DHF–HSA complex was determined by nonlinear fitting applying the Hyperquad2006 software as described elsewhere. […]

[3] = tested on: T5, warfarin-HSA complex (Site I); test: Fluorescence-based displacement of warfarin from HSA; format: binding, human; conditions: warfarin 1.0 μM, HSA 3.5 μM, DHF 0-10 μM, PBS pH 7.4, λex 317 nm
T5 construct: purchased Sigma-Aldrich
Description: Ultraviolet (UV)-Vis spectra of DHF were recorded employing a Halo DB-20 spectrophotometer (Dynamica; Dietikon, Switzerland), after which the inner filter effect of DHF was corrected in each experiment based on the following equation [26, 28]:(2) Icorr=Iobs×e^(Aex+ Aem)/2, where Icorr and Iobs indicate the corrected and the measured fluorescence emission intensity, respectively, while Aex and Aem denote the absorption of DHF at the excitation and emission wavelengths used, respectively.

[4] = parameters: method as in PMID 29295929; conditions: mice, cited from earlier work
CYP2C9 [5] = biological target: T6, CYP2C9 (Homo sapiens, UniProt P11712); test: CYP2C9 in vitro enzyme assay (diclofenac to 4'-hydroxydiclofenac)
T6 sequence (P11712 whole entry): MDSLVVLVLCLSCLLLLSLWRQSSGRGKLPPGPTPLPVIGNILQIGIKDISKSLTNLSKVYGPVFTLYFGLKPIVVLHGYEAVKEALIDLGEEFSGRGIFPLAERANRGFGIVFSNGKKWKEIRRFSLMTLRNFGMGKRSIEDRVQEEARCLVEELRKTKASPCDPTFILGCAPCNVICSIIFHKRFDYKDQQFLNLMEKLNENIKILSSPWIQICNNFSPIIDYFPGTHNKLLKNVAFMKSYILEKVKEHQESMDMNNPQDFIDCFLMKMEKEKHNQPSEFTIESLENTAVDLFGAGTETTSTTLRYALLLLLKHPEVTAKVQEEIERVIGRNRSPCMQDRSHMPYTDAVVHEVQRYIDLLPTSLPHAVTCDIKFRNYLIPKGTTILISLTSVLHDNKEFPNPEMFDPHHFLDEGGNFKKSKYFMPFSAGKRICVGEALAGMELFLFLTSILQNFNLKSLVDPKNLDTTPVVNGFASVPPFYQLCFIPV
Description: The inhibitory action of DHF on CYP2C9 was investigated as described earlier. In the enzyme-catalyzed reaction, diclofenac is oxidized to 4′-hydroxydiclofenac. […] The incubates (with 200 μL final volume) contained CypExpress 2C9 reagent (8 mg/mL) including also the NADPH (nicotinamide adenine dinucleotide phosphate, reduced) generating system, diclofenac (15 μM), and increasing concentrations of DHF (0, 15, 30, 45, and 60 μM) in potassium phosphate buffer (50 mM, pH 7.5). The incubation was carried out in a thermomixer (80 min, 700 rpm, 30 °C). The reaction was started by the addition of the enzyme and stopped by the addition of 100 μL of ice-cold methanol; then, the samples were centrifuged (10 min, 14,000× g, 25 °C). Diclofenac and 4′-hydroxydiclofenac were analyzed in the supernatants by HPLC (see Section 2.5).
Diclofenac and 4′-hydroxydiclofenac (CYP2C9 assay) were quantified as reported previously. The samples were driven through a Phenomenex Security Guard (C8, 4.0 × 3.0 mm) guard column (Torrance, CA, USA) linked to an Eclipse C8 (150 × 4.6 mm, 5 μm; Agilent, Santa Clara, CA, USA) analytical column. The separation was carried out at 1.0 mL/min flow rate at room temperature. During the isocratic elution, the mobile phase contained acetonitrile and 6 mM orthophosphoric acid (52:48 v/v%). Diclofenac and 4′-hydroxydiclofenac were detected at 275 nm.

[6] = biological target: T7, xanthine oxidase (XO; from bovine milk) (Bos taurus, UniProt P80457); test: Xanthine oxidase in vitro enzyme assay (6-mercaptopurine to 6-thiouric acid); format: biochemical; conditions: substrate 6-mercaptopurine 5.0 μM
T7 construct: xanthine oxidase (XO; from bovine milk); purchased Sigma-Aldrich; host or cells: bovine milk
T7 sequence (P80457 whole entry): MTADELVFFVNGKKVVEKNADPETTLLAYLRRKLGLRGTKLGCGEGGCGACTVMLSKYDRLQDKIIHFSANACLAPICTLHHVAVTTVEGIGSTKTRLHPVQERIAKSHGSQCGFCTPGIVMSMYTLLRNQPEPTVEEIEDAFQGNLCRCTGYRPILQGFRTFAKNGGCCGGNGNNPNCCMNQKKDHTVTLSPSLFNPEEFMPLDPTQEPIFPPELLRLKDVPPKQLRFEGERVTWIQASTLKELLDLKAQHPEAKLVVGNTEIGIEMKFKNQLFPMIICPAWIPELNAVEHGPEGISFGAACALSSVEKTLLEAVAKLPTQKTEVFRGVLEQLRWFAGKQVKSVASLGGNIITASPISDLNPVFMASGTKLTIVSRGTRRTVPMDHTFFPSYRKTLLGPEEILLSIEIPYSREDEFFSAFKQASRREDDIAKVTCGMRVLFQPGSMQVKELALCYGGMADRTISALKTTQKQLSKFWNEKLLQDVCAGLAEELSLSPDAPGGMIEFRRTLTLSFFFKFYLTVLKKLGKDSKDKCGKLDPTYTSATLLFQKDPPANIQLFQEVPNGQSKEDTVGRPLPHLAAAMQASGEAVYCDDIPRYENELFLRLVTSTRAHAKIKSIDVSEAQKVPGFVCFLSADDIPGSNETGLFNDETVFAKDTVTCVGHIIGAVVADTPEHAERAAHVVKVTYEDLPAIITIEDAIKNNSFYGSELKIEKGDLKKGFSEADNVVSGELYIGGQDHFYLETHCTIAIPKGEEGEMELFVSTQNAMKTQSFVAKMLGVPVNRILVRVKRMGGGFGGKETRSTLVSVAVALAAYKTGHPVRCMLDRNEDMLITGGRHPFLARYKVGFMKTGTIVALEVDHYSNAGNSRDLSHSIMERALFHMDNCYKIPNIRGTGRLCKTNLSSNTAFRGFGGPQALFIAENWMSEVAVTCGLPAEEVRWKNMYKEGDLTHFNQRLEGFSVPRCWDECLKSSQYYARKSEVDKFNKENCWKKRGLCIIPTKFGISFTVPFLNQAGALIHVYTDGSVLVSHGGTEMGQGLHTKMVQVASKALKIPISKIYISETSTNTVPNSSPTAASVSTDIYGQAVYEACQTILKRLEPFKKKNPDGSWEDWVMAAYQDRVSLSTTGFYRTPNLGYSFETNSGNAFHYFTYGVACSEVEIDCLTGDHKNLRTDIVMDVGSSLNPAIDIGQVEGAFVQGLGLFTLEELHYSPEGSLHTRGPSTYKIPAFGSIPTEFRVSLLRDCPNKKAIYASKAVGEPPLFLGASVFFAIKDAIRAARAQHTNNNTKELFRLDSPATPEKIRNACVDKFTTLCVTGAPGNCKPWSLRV
Description: The inhibitory action of DHF on XO was investigated as described earlier [31]. In the enzyme-catalyzed reaction, 6-mercaptopurine is oxidized to 6-thiouric acid. […] The incubates (with 500 μL final volume) contained XO enzyme (0.01 unit/mL), 6-mercaptopurine (5 μM), and increasing concentrations of DHF (0, 5, 10, 15, and 20 μM) in sodium phosphate buffer (50 mM, pH 7.5). Samples were incubated in thermomixer (40 min, 700 rpm, 37 °C). The reaction was started by the addition of the enzyme and stopped by the addition of 30 μL of perchloric acid (6 M). After the samples were vortexed and centrifuged (5 min, 1,4000× g, room temperature), a 300-μL aliquot of the supernatant was transferred into another Eppendorf tube; then, 36 μL of potassium hydroxide (1 M) was added to this fraction. Samples were cooled to 3 °C, then, centrifuged (5 min, 14,000× g, 3°C). 6-mercaptopurine and 6-thiouric acid were quantified in the supernatants by HPLC (see Section 2.5).
The samples were driven through a Phenomenex SecurityGuard (C18, 4.0 × 3.0 mm) guard column linked to a Phenomenex Gemini-NX C18 (150 × 4.6 mm, 3 μm) analytical column. The eluent contained methanol, acetonitrile, and 0.02 M orthophosphoric acid (4:5:91 v/v%). The isocratic elution was performed at 0.8 mL/min flow rate at room temperature. 6-mercaptopurine and 6-thiouric acid were detected at 334 nm.

[7] = cited from earlier work
HSA = conditions: cited from earlier work
CYP2C9 [8] = biological target: T6, CYP2C9; conditions: same model as this study; cited from earlier work
CYP3A4 [9] = biological target: T2, CYP3A4; parameters: method as in PMID 30142539; conditions: same model as this study; cited from earlier work

**Q.** For `O=c1cc(-c2ccccc2)oc2c(O)c(O)ccc12` [DHF, 7,8-dihydroxyflavone], which “further fraction of total naproxen in the filtrate” value (HSA Site II (naproxen); 10 μM DHF) is on record?
**A.** The value was 14%.

**Q.** And the “further fraction of total naproxen in the filtrate” value (HSA Site II (naproxen); 20 μM DHF)?
**A.** The value was 22%.

**Q.** And the IC50 (CYP3A4 [1])?
**A.** The IC50 was 14.5 µM.

**Q.** And the “IC50(rel) (IC50 divided by substrate concentration)” value (CYP3A4 [1]; human, 180 min, pH 7.5)?
**A.** The value was 2.9.

**Q.** What about the “fraction of total warfarin became unbound” value (HSA Site I (warfarin); 10 μM DHF) of the same compound?
**A.** Its value is 12%.

**Q.** What about the “fraction of total warfarin became unbound” value (HSA Site I (warfarin); 20 μM DHF) of the same compound?
**A.** The value was 21%.

**Q.** What about the IC50 (CYP2C19) of the same compound?
**A.** Its IC50 is 19 µM.

**Q.** And the “IC50(rel) (IC50 divided by substrate concentration)” value (CYP2C19; human, 120 min, pH 7.5)?
**A.** The value was 3.8.

**Q.** And the “Stern-Volmer quenching constant KSV” value ([2]; λex 295 nm, λem 340 nm)?
**A.** Its value is 344000 ± 3000 L/mol.

**Q.** What about the “binding constant K of DHF-HSA complex” value ([2]; nonlinear fitting with Hyperquad2006) of the same compound?
**A.** Its value is 490000 L/mol and 487000 ± 7000 L/mol.

**Q.** And the “effect on fluorescence emission signal of warfarin at 379 nm” value [3]?
**A.** The value was “strongly decreased”.

**Q.** And the plasma concentrations ([4]; per os 15-50 mg/kg DHF)?
**A.** Its plasma concentrations is 0.033 to 0.192 µM.

**Q.** And the oral bioavailability [4]?
**A.** Its oral bioavailability is “approximately 4.5%”.

**Q.** And the IC50 (CYP2C9 [5])?
**A.** Its IC50 is 34.5 µM.

**Q.** And the “IC50(rel) (IC50 divided by substrate concentration)” value (CYP2C9 [5]; human, 80 min, pH 7.5)?
**A.** Its value is 2.3.

**Q.** What about the “α (IC50 of DHF divided by IC50 of positive control)” value (CYP2C9 [5]; human, 80 min, pH 7.5) of the same compound?
**A.** Its value is 1.0.

**Q.** And the IC50 [6]?
**A.** Its IC50 is 11 µM.

**Q.** What does the source list for `Clc1ccccc1CN1CCc2sccc2C1` [TIC, ticlopidine]?
**A.** peak plasma concentrations ([7]; chronic treatment, oral 250 mg twice daily, men): 3.4 to 4.1 µM; average peak plasma concentrations ([7]; oral 3 × 100 mg daily, healthy subjects): approximately 3.5 μM; peak plasma concentration ([7]; oral single 250 mg dose): 1.3 to 2.6 µM

**Q.** Which “IC50(rel) (IC50 divided by substrate concentration)” value (CYP2C9 [5]; human, 80 min, pH 7.5) does the source give for `CC(=O)CC(c1ccccc1)c1c(O)c2ccccc2oc1=O` (stereo not shown) [WAR, warfarin, reference compound] here?
**A.** The value was 2.3.

**Q.** And the “binding constant K to HSA” value (HSA; warfarin-HSA)?
**A.** The value was 340000 L/mol.

**Q.** With `COc1ccc(-c2oc3cc(OC)c(OC)c(O)c3c(=O)c2OC)cc1O` [casticin] as the compound, how does the “fold weaker inhibitor of CYP2C9 compared to DHF” value (CYP2C9 [8]) read?
**A.** Its value is 1.3 fold.

**Q.** For `O=c1cc(-c2ccccc2)oc2cc(O)cc(O)c12` [chrysin, 5,7-dihydroxyflavone], which “binding constant K to HSA” value (HSA; chrysin-HSA) is on record?
**A.** The value was 340000 L/mol.

**Q.** Which “inhibitory effect on CYP3A4 compared to DHF” value (CYP3A4 [9]) does the source give for `Oc1ccc(/C=C/c2cc(O)cc(O)c2)cc1` [resveratrol] here?
**A.** The value was “two-fold stronger inhibitor”.
